Data taken from patent US20150224164A1, “TREATMENT OF AUTISM SPECTRUM DISORDERS USING GLYCYL-L-2-METHYLPROLYL-L-GLUMATIC ACID” (Neuren Pharmaceuticals Limited, priority 2013, published 2015).
Where two headings read alike, the source gives them in different places. Where a SMILES comes first, the peptide text is derived from it.

Legend:
MeCP2 deficient mice [1] = assay: Seizure activity, electroencephalographic recordings (Example 12); conditions: mouse, in vivo
Description: Electroencephalograpic recordings of wild-type mice and MeCP2 deficient mice treated with either saline or G-2-MePE are obtained using methods described in U.S. Pat. No. 7,714,020.

fmr1 knockout mice [2] = assay: Contextual fear conditioning, fmr1 knockout mice; type: in vivo, mouse; conditions: fmr1 KO; 100 mg/kg i.p. 28 days
Procedure: (§1) G-2-MePE was administered at the dose of 100 mg/kg i.p. in 0.1 ml saline, once daily for 28 days. Vehicle-treated animals were injected with 0.1 ml saline daily for 28 days. Thereafter, drug or vehicle treatments were stopped and animals were tested on successive days until all tests were completed. Finally, the animals were sacrificed for determining expression of pAkt and pERK
Contextual fear conditioning is the most basic of the conditioning (learning) procedures. It involves placing the animal in a novel environment (dark chamber), providing an aversive stimulus (a 1-sec electric shock at 0.2 mA to the paw), and then removing it. […] Freezing is a species-specific response to fear and is defined as absence of movement except for respiration.
The clinical manifestation of Fragile X Syndrome is mental retardation in which learning and memory may be profoundly impaired. We tested G-2-MePE and vehicle treated fmr1 KO and wild-type animals in a fear-conditioning task in which we measured freezing behavior in response to context. […] Before the test, we observed the mice for their reactions to a 1-sec foot shock at 0.2 mA, and we noted vocalizations, jumping behavior, and excessive running in both genotypes as evidence that they had detected the stimulus.

[3] = Pharmacokinetic studies, plasma half-life; type: in vivo; conditions: rat
Procedure: The ability of the rats to remember or to relearn the original platform location was tested four weeks after original training. This means that residual drug would have been washed out for a minimum of 7 days in the case of the 3-week pumps, and 21 days in the case of the 1-week pumps. The retention testing procedure was identical to that of acquisition. Pharmacokinetic studies indicate that the plasma concentration of subcutaneously administered G-2-MePE rose to a peak and then declined with an approximately first order kinetic pattern, with a plasma half-life (t ½) of between about 30 and 60 minutes. Thus, by the time the retention study was performed, at least 7 days after removal of the G-2-MePE containing minipumps, nearly all of the G-2-MePE had been cleared from the animals' circulation.

MeCP2-/y mice = assay: Life span (Example 10); type: in vivo, mouse; conditions: 20 mg/kg i.p. daily from P15; vs MeCP2 KO littermates
Procedure: For the survival measurements, the nocturnal activity analysis and the immunoblot analysis, G-2-MePE (synthesised Albany Molecular Research Inc. (Albany, N.Y.) and supplied by Neuren Pharmaceuticals Limited) is administered daily via intra-peritoneal injections (20 mg/kg, vehicle=saline, 0.01% BSA). The treatment starts at P15 and is maintained throughout the course of the experiments. For intracellular physiology experiments, the mice are injected daily with G-2-MePE (20 mg/kg body weight, vehicle=saline, 0.01% BSA) for 2 weeks, from P15 to P28-P32 when they are used for acute slice preparation. For optical imaging experiments, mice are injected with G-2-MePE (20 mg/kg body weight, vehicle=saline, 0.01% BSA) daily from the day of the lid suture to the day of imaging.

[4] = tested on: hippocampus slices from MeCP2 deficient mice; assay: Hippocampal long-term potentiation, fEPSP slope (Example 8); type: in vivo, mouse; conditions: 20 mg/kg/day i.p. week 4 to 9; vs saline
Description: MeCP2 deficient mice have been previously reported to suffer from functional and ultrastructural synaptic dysfunction, significant impairment of hippocampus-dependent memory and hippocampal long-term potentiation (LTP) (Moretti et al. The Journal of Neuroscience. 2006. 26(1):319-327). To test the effects of the G-2-MePE treatment on synaptic function in the RTT model we compared hippocampal LTP in both vehicle and G-2-MePE treated animals at 9 weeks of age. To do so, we measured the slope of the fEPSP as a % of baseline potential in neurons in slices of hippocampus from MeCP2 deficient mice treated with either saline or G-2-MePE (FIG. 23).

central nervous system = conditions: after oral administration; cited from earlier work
MeCP2 deficient mice [5] = tested on: MeCP2 deficient mice
Procedure: We treated hemizygous MeCP2(1lox) male mice with 20 mg/kg/day of G-2-MePE or saline, (0.01% BSA, n=15 per group in survival experiment and n=20 in the LTP experiment). The treatments were administered intraperitoneally from 4 weeks after birth. For the survival experiments the treatment was maintained through the course of the experiment. For the LTP experiment the mice were treated until week 9 when they were used for slice preparation.
MeCP2 deficient mutant mice develop RTT symptoms at about 4-6 weeks of age and die between 10-12 weeks (Chen et al., 2001. Nat Genet 27: 327-331). We compared the survival of the wild type controls and the MeCP2 deficient animals in vehicle- and G-2-MePE-treated groups. Survival was measured weekly from start of treatment (4 weeks) and used to produce Kaplan-Meier survival curves to show the proportion of mice that survived (y axis) at each weekly interval (x axis) (see FIG. 22).

fmr1 knockout mice [6] = assay: Successive alleys test, fmr1 knockout mice; type: in vivo, mouse; conditions: 100 mg/kg i.p. 28 days
Procedure: as §1
The successive alleys test was used to assess the effects of G-2-MePE on anxiety in the fmr1 KO mice. The apparatus consists of four successive, increasingly anxiogenic, linearly connected alleys (each succeeding alley is painted a lighter colour, has lower walls and/or is narrower than the previous alley). Animals were placed at the closed end of alley 1, facing the end wall. The latency to first enter each alley, the amount of time spent in each alley, and the number of entries into each alley was recorded during a total test time of 300 s.

fmr1 knockout mice [7] = assay: Species typical behaviors: marble burying and nest building; type: in vivo, mouse; conditions: 100 mg/kg i.p. 28 days

C[C@@]1(C(=O)N[C@@H](CCC(=O)O)C(=O)O)CCCN1C(=O)CN [Example G-2-MePE, Glycyl-L-2-methylprolyl-L-glutamic acid] (HELM PEPTIDE1{G.[C[C@@]1(C(=O)[*:2])CCCN1[*:1]].E}$$$$V2.0)
motor seizures and non-convulsive seizures (MeCP2 deficient mice [1]): effective in decreasing both motor seizures and non-convulsive seizures | freezing behavior, contextual fear conditioning (fmr1 knockout mice [2]): normalizes the deficit | half-life ([3]; in vivo, read-out: plasma half-life in vivo): ~30 min | half-life ([3]; sc, subcutaneously administered, read-out: plasma half-life (t 1/2)): 30 to 60 min | increase in life expectancy (0.5 probability survival rate) (MeCP2-/y mice): ~50% | slope of fEPSP (LTP) [4]: increased the slope | activity in the central nervous system (central nervous system): active in the central nervous system | time at which 50% of the animals survived (MeCP2 deficient mice [5]; 20 mg/kg/day i.p. from 4 weeks, saline about 11 weeks): about 15 weeks | time to 50 percent death, re-examination with control group re-run (MeCP2 deficient mice [5]; 20 mg/kg/day i.p., controls 13.5 weeks): 16 weeks | time to 50 percent death, data initially presented (MeCP2 deficient mice [5]; 20 mg/kg/day i.p., untreated 11 weeks): 16 weeks | safety in mecp2 mice (MeCP2 deficient mice [5]; mouse, in vivo): No safety concerns | pattern of time spent in successive alleys (fmr1 knockout mice [6]): reinstated the normal pattern of behavior | marble burying behavior (fmr1 knockout mice [7]; fmr1 KO): normalized marble burying behavior | nest building behavior (fmr1 knockout mice [7]; fmr1 KO): increased both marble burying and nest building behaviors | marble burying (fmr1 knockout mice [7]; wild-type mice): no significant effect
